US20070042937A1, “Inhibitors of 2-oxoglutarate dioxygenase as gamma globin inducers” (FibroGen, Inc., priority 2003, published 2007)
Like-named read-outs stand apart in the source and are kept apart here.

Key:
[1] = tested on: CD34+ human bone marrow progenitor cells; conditions: for increase in HbF expression over untreated controls: added to both Phases I and II; for increase in HbF expression as assessed by MFI: compound alone, only during Phase II; for increase in HbF expression: CD34+ progenitor cell cultures, single assay, single cultures, FIG. 6; for increase in HbF synthesis compared to vehicle controls: added during EPO-dependent Phase II, FIG. 3A
K562 cells = conditions: 4 days, 20 μM, FIG. 2
[2] = tested on: CD34+ human bone marrow progenitor cells; assay: Percent HbF-positive cells (F-cells) in CD34+ bone marrow progenitor cell cultures by flow cytometry; conditions: for increase in F-cells over untreated cultures / increase in F-cells over untreated cultures, in combination with HU: CD34+ cells, only during Phase II, FIG. 3B; for increase in F-cells over untreated cultures, in combination with HU: in combination with 5 μM HU
[3] = tested on: CD34+ human bone marrow progenitor cells; conditions: FIG. 4B; for total hemoglobin in the cultures: compound alone
Procedure: Following phase I and II of the culture period, cells were harvested and approximately 1-2×10^5 cells were placed into round-bottom 96-well microtiter plates for each flow cytometry sample. The assay buffer for all washes and the diluent used for antibodies is PBS containing 0.1% BSA.
For HbF and Hb-specific immunolabeling, cells were pelleted by centrifugation at 1200 rpm for 2 minutes in a swinging bucket centrifuge (Beckman Coulter, Fullerton Calif.) with adaptors for microtiter plates, and the supernatant was aspirated. The cells were resuspended and lightly fixed in 100 ml of buffer containing 0.05% glutaraldehyde for 10 minutes, followed by addition of 100 ml of buffer and pelleting by centrifugation exactly as described above. The cells were washed two more times (for a total of 2.5 washes) before resuspension in buffer containing 1% Triton-X 100 for 5 min, to permeabilize the cells and enable penetration of antibodies. Following an additional 2.5 washes as described, cells were resuspended with 100 ml of buffer containing antibodies specific for HbF or the appropriate monoclonal isotype control (Caltag Laboratories, Burlingame Calif.), or total Hb and the matched polyclonal isotype control (BiosPacific, Emeryville Calif.).
The antibodies for HbF and isotype-matched control were directly conjugated to fluorochromes, so after antibody incubation the cells were washed as above before fixation in 1% formaldehyde, and stored at 4° C. in the dark until analysis. […] After an additional 2.5 washes, cells were fixed in 1% formaldehyde and stored at 4° C. in the dark until analysis.

γ-globin = γ-globin mRNA expression in K562 cells by quantitative PCR, normalized to 18S rRNA; format: cell-based, human; conditions: FIG. 1A
Procedure: For studies utilizing the human erythroleukemia K562 cell line (ATCC), cells were grown and cultured in complete medium (RPMI 1640, 10% fetal calf serum (FCS), 100 U/ml penicillin and 0.1 mg/ml streptomycin) in a humidified incubator at 37° C., 95% air, 5% CO2-HPIs were titrated into duplicate cultures at dosage levels spanning more than 100-fold differences in concentration, and incubated from 24 to 96 hours prior to harvesting and quantitation of F-cells and HbF levels by flow cytometry.
Each PCR run included a standard curve and water blank. In addition, a melt curve was run after completion of each PCR run to assess the specificity of the amplification. γ-globin gene expression was normalized relative to the expression level of 18S ribosomal RNA for each sample.

Structure (SMILES): O=C(O)CNC(=O)c1nc(Cl)c2ccccc2c1O [HPI-1, N-((1-chloro-4-hydroxy-isoquinoline-3-carbonyl)-amino)-acetic acid]
- HbF expression (MFI for HbF) when used together with HU ([1]; 20 μM plus HU, FIG. 5B): additive
- HbF expression as measured by MFI for HbF, compared to vehicle control (DMSO) ([1]; 20 μM, triplicate, FIG. 5B): increased
- increase in HbF expression over untreated controls ([1]; CD34+ cells, 10 μM): 12%
- increase in HbF expression over untreated controls ([1]; CD34+ cells, 20 μM): 47%
- increase in HbF expression as assessed by MFI ([1]; CD34+ cells): 36%
- increase in HbF synthesis compared to negative control cultures (K562 cells): 23-52%
- HbF expression (percent F-cells) when used together with HU ([2]; 20 μM plus HU, FIG. 5A): additive
- HbF expression as measured by percent F-cells, compared to vehicle control (DMSO) ([2]; 20 μM, triplicate, FIG. 5A): increased
- increase in F-cells over untreated cultures ([2]; compound alone): 29%
- increase in F-cells over untreated cultures, in combination with HU [2]: 58%
- increase in F-cells ([2]; CD34+ progenitor cells, 20 μM, FIG. 4A): 50%
- F-cells, co-treatment with HU or butyrate ([2]; CD34+ progenitor cells, co-treatment with HPI-1 and HU or butyrate, FIG. 4A): additive increase
- total hemoglobin, co-treatment with HU or butyrate ([3]; co-treatment with HPI-1 and HU or butyrate): no significant change
- total hemoglobin in the cultures [3]: did not cause a general increase

Structure (SMILES): O=C(O)CNC(=O)c1ncc2cc(Br)ccc2c1O [HPI-2, [(7-Bromo-4-hydroxy-isoquinoline-3-carbonyl)-amino]-acetic acid]
- increase in HbF expression over controls ([1]; CD34+ cells, added during both phases, concentration not given): 40%
- increase in HbF expression as assessed by MFI ([1]; CD34+ cells): 5%
- increase in HbF expression [1]: about 10%
- increase in HbF synthesis compared to negative control cultures (K562 cells): 77%
- increase in F-cells over untreated cultures ([2]; compound alone): 12%
- increase in F-cells over untreated cultures, in combination with HU [2]: 29%

Structure (SMILES): COc1ccc2c(O)c(C(=O)NCC(=O)O)nc(Cl)c2c1 [HPI-3, [(1-Chloro-4-hydroxy-7-methoxy-isoquinoline-3-carbonyl)-amino]-acetic acid]
- increase in HbF expression [1]: about 10%

Structure (SMILES): O=C(O)CNC(=O)c1nc2cc(Cl)ccc2cc1O [HPI-4, [(7-Chloro-3-hydroxy-quinoline-2-carbonyl)-amino]-acetic acid]
- increase in HbF expression [1]: 56%

Structure (SMILES): CC(C)Oc1ccc2nc(C(=O)NCC(=O)O)c(O)cc2c1 [HPI-5, [(3-Hydroxy-6-isopropoxy-quinoline-2-carbonyl)-amino]-acetic acid]
- increase in HbF expression [1]: 75%

Structure (SMILES): O=C(O)CNC(=O)c1ncc2cc(Sc3ccccc3)ccc2c1O [HPI-6, [(4-Hydroxy-7-phenylsulfanyl-isoquinoline-3-carbonyl)-amino}-acetic acid]
- expression of the gene encoding γ-globin (γ-globin; 3 days, 0, 3, 4.5, 10, 12.5 or 20 μM): increased in a dose-dependant manner
- γ-globin expression with further addition of hydroxyurea (γ-globin; 3 days, plus 100 μM HU, especially at lower concentrations): augmented

Structure (SMILES): NC(=O)NO [HU, hydroxyurea, reference compound]
- increase in HbF synthesis compared to vehicle controls ([1]; CD34+ cells): 50%
- F-cells ([2]; CD34+ progenitor cells, compound alone, FIG. 4A): increases
- total hemoglobin in the cultures [3]: increases

Structure (SMILES): CCCC(=O)O [butyrate, reference compound]
- increase in HbF synthesis compared to vehicle controls ([1]; CD34+ cells): 85%
